Test systems include MDA-MB-231 breast; SR leukemia; HCT-15 colon; KM12 colon; A498 renal; CAKI-1 renal; M14 melanoma; SNB-75 CNS; HCC-2998 colon; COLO 205 colon.
Assay in all cases: DTP human tumour cell line panel, 48 h

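In this assay, cells in 96-well plates receive the compound at five concentrations for 48 hours. Endpoints are linearly interpolated between the surrounding concentrations. GI50 = concentration required for 50% inhibition of growth. TGI marks complete inhibition of growth.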

Take `COc1ccc(-c2nn3ncccc3c2-c2ccnc(Nc3ccc4c(c3)OCCO4)n2)cc1`: the GI50 with MDA-MB-231 breast was 6.55 µM; with SR leukemia, 16.1 µM; with HCT-15 colon it was 6.89 µM; with KM12 colon, 5.99 µM; with A498 renal it was 3.69 µM; with CAKI-1 renal it was 2.7 µM. Further, the GI50 was 8.55 µM in the assay on M14 melanoma, above 13.9 µM with SNB-75 CNS, 11 µM in the assay with HCC-2998 colon and 13.1 µM with COLO 205 colon. Further, the TGI was above 25 µM with MDA-MB-231 breast; above 25 µM with SR leukemia; above 25 µM with HCT-15 colon; above 25 µM in the assay with KM12 colon; 22.1 µM with A498 renal; above 24.1 µM in the assay with CAKI-1 renal. The TGI with M14 melanoma, with SNB-75 CNS, with HCC-2998 colon and in the assay on COLO 205 colon was above 25 µM each time.

On to `NC(CSC(c1ccccc1)(c1ccccc1)c1ccc(F)cc1)C(=O)O` (centres undefined), for which the 50% growth inhibitory concentration (GI50) in the assay with MDA-MB-231 breast is 0.326 µM; in the assay on SR leukemia, 0.253 µM; in the assay on HCT-15 colon, 0.511 µM; in the assay with KM12 colon it was 0.405 µM; with A498 renal it was 0.344 µM; in the assay with CAKI-1 renal, 0.79 µM. The GI50 in the assay with M14 melanoma was 0.402 µM; with SNB-75 CNS, 1.74 µM; in the assay with HCC-2998 colon it was 0.438 µM; with COLO 205 colon, 0.231 µM. Further, the concentration for total growth inhibition (TGI) with MDA-MB-231 breast is 5.5 µM; in the assay with SR leukemia, 2.93 µM; in the assay with HCT-15 colon it was above 100 µM; in the assay with KM12 colon, 20.7 µM; with A498 renal, 33.8 µM; with CAKI-1 renal, above 26.8 µM. The TGI is above 100 µM in the assay on M14 melanoma, 11.5 µM with HCC-2998 colon and 0.667 µM in the assay with COLO 205 colon.

Regarding `Oc1c(O)c(Cl)c(Cl)c(Cl)c1Cl`, the GI50 was 5.1 µM in the assay on MDA-MB-231 breast; 2.73 µM in the assay with SR leukemia; 3.56 µM in the assay on HCT-15 colon; 3.96 µM in the assay on KM12 colon; 2.67 µM in the assay with A498 renal; 6.33 µM in the assay with CAKI-1 renal. Moreover, the GI50 in the assay with M14 melanoma was 3.51 µM; in the assay on SNB-75 CNS, 2.52 µM; in the assay with HCC-2998 colon, 16.3 µM; with COLO 205 colon it was 12.5 µM. Moreover, the TGI with MDA-MB-231 breast was 38.5 µM; with SR leukemia, above 100 µM; in the assay with HCT-15 colon it was 19.4 µM; in the assay on KM12 colon it was 19.7 µM; in the assay with A498 renal, 8.92 µM; in the assay on CAKI-1 renal, 23 µM. Also, the total growth inhibition concentration (TGI) with M14 melanoma was determined as 15.4 µM; with SNB-75 CNS it was 21 µM; in the assay with HCC-2998 colon, 30.7 µM; in the assay with COLO 205 colon, 33.7 µM.

Take `C=C(CN1c2ccccc2Sc2ccccc21)c1ccc(C(=O)Nc2ccccc2N)cc1`: the GI50 was 20.3 µM in the assay with MDA-MB-231 breast; 2.32 µM in the assay with SR leukemia; above 42.5 µM in the assay on HCT-15 colon; 5.84 µM with KM12 colon; above 100 µM in the assay with A498 renal; 8.83 µM with CAKI-1 renal. In addition, the GI50 is 32.9 µM in the assay with M14 melanoma, 15.8 µM in the assay on SNB-75 CNS, 14.6 µM with HCC-2998 colon and 34.7 µM with COLO 205 colon. For the same compound, the concentration for total growth inhibition (TGI) with MDA-MB-231 breast is above 79.4 µM; in the assay with SR leukemia it was above 59.5 µM; in the assay with HCT-15 colon it was above 100 µM; in the assay on KM12 colon, above 100 µM; in the assay with A498 renal, above 100 µM; with CAKI-1 renal it was above 50.2 µM. Further, the TGI in the assay with M14 melanoma is above 100 µM; in the assay with SNB-75 CNS it was above 100 µM; in the assay on HCC-2998 colon, above 86.3 µM; in the assay on COLO 205 colon, above 100 µM.

For `CCc1nn2ncccc2c1-c1ccnc(NC2CC2)n1`, the GI50 is above 25 µM with MDA-MB-231 breast; above 25 µM with SR leukemia; above 25 µM in the assay on HCT-15 colon; above 25 µM in the assay with KM12 colon; 9.73 µM in the assay with A498 renal; above 22.1 µM in the assay on CAKI-1 renal. The GI50 in the assay on M14 melanoma, with SNB-75 CNS, in the assay on HCC-2998 colon and with COLO 205 colon was above 25 µM throughout. Further, the TGI in the assay with MDA-MB-231 breast, with SR leukemia, with HCT-15 colon, with KM12 colon, in the assay on A498 renal and in the assay with CAKI-1 renal was above 25 µM each time. Besides, the TGI with M14 melanoma, in the assay with SNB-75 CNS, in the assay with HCC-2998 colon and in the assay with COLO 205 colon was above 25 µM in each case.

On to `CC[C@@H](O)C[C@H]1CCC[C@@]2(C[C@@H]3OC(=O)/C=C/[C@@](C)(O)[C@@H](O)[C@H](C)[C@@H](O)[C@H](OC4CCC(N(C)C)C(C)O4)[C@@H](O)[C@](C)(O)CCCCC/C=C/[C@@H]4CC(C)(C)O[C@@]4(O)C[C@H](O2)[C@H]3C)O1` (some centres undefined), for which the TGI in the assay on MDA-MB-231 breast stood at 34.1 µM; in the assay with SR leukemia it was 9.42 µM; in the assay on HCT-15 colon, 29.2 µM; in the assay with KM12 colon, 24.4 µM; in the assay on A498 renal it was 57.4 µM; with CAKI-1 renal, 20.2 µM. Further, the TGI in the assay on M14 melanoma is 7.48 µM; in the assay with SNB-75 CNS, 21.5 µM; with HCC-2998 colon, 17.5 µM; in the assay with COLO 205 colon, 14.5 µM.

On to `Nc1ccc(-c2ccc3ncc4ccc(=O)n(-c5cccc(C(F)(F)F)c5)c4c3c2)cn1`, for which the GI50 was below 0.0141 µM in the assay on MDA-MB-231 breast; below 0.01 µM with SR leukemia; below 0.01 µM in the assay on HCT-15 colon; below 0.0112 µM in the assay with KM12 colon; below 0.01 µM with A498 renal; below 0.01 µM in the assay on CAKI-1 renal. The GI50 in the assay on M14 melanoma was below 0.01 µM; in the assay on SNB-75 CNS, below 0.01 µM; in the assay on HCC-2998 colon, below 0.0118 µM; with COLO 205 colon, 0.0245 µM. The TGI in the assay with MDA-MB-231 breast is 2.21 µM; with SR leukemia, 0.56 µM; with HCT-15 colon it was 11.7 µM; with KM12 colon, 1.45 µM; with A498 renal it was below 0.01 µM; in the assay with CAKI-1 renal it was 1.55 µM. The TGI with M14 melanoma came to 0.266 µM; in the assay with SNB-75 CNS, 0.0227 µM; with HCC-2998 colon, 1.6 µM; in the assay on COLO 205 colon, 0.683 µM.

Consider `COc1ccc2[nH]c(C(=O)OCc3ccc4cccc(O)c4n3)cc2c1`, for which the GI50 is 1.17 µM in the assay with MDA-MB-231 breast; 0.251 µM with SR leukemia; 0.757 µM in the assay with HCT-15 colon; 1.94 µM in the assay on KM12 colon; 2.65 µM in the assay with A498 renal; 1.13 µM in the assay on CAKI-1 renal. The GI50 in the assay on M14 melanoma is 0.564 µM; in the assay on SNB-75 CNS, 1.06 µM; with HCC-2998 colon, 1.43 µM; in the assay with COLO 205 colon, 1.29 µM. The TGI was 2.49 µM with MDA-MB-231 breast; 1.25 µM in the assay on SR leukemia; 3.18 µM in the assay with HCT-15 colon; 3.9 µM with KM12 colon; 5.57 µM in the assay with A498 renal; 2.49 µM with CAKI-1 renal. The TGI in the assay with M14 melanoma worked out at 2.04 µM; with SNB-75 CNS it was 2.3 µM; in the assay with HCC-2998 colon, 2.92 µM; in the assay with COLO 205 colon it was 2.91 µM.

These data come from PubChem BioAssay (NCI).
